From US20230293488A1, “COMPOSITIONS AND METHODS OF USE OF ANTIBACTERIAL DRUG COMBINATIONS” (priority 2015, published 2023)
Entries after “also recorded” stand apart in the source; their conditions may differ.

Key:
[1] = tested on: MRSA N315; experiment: Adaptation and cross-resistance assays (11-day passage); assay type: cell-based, Staphylococcus aureus
Procedure: Adaptation and Cross-resistance Assays: 414 MRSA N315 was grown in 150 μl/well of CAMHB with constant shaking at 37° C. and passaged over 11 days in identical 96-well plates containing replicate threefold dilutions of ME/PI/TZ, ME/PI, ME/TZ, PI/TZ, ME, PI, and TZ. Top concentrations of drug combinations were 33.3 μg/ml for each component, while top concentrations for single drugs was 100 μg/ml. To test for cell viability, at the end of the assay on day 11, all wells from the plate were pinned with a sterile 96-pin replicator and transferred to CAMHB only. After passage, plates were filled 1:1 with 30% CAMHB/glycerol and frozen at −80° C. for later analysis.
Growth rate of isolates over passages in each condition was determined by linear best-fit of logarithm-converted exponential growth phase. […] Adapted isolates were retrospectively chosen from each combination or single compound in wells showing an increase in MIC or growth rate, frozen isolates were streaked out on agar plates to obtain single colonies, re-grown in broth conditions identical to those in which they grew originally, and then re-inoculated in sterile 96-well plates identical to the original 11-day 431 plates.

[2] = tested on: MRSA N315; experiment: MIC assay and FICI synergy determination (checkerboard); assay type: cell-based, Staphylococcus aureus; conditions: Staphylococcus aureus, MRSA; single compounds; read-out: MIC in MRSA N315
Procedure: Microbiological Studies: MRSA N315 was a gift from Dr. Steven Gill, University of Rochester, Rochester, NY, USA. S. aureus ATCC 29213 was acquired from the American Type Culture Collection. De-identified clinical MRSA isolates were selected at random from the clinical isolate strain bank at Barnes-Jewish Hospital, St. Louis, MO, USA. Minimal inhibitory concentration (MIC) assays for inhibition of growth were performed following the recommendations of the Clinical and Laboratory Standards Institute (CLSI)^43. Briefly, 23 antibacterial compounds (Supplemental Table 1) were selected based on coverage of all major drug classes, including three compounds not classified as antibiotics for human use, but with known antibacterial properties. Compounds were dissolved in dimethyl sulfoxide (DMSO) to a stock concentration of 50 mg/ml. Exceptions: Sulfometuron at 20 mg/ml in DMSO; Tobramycin, D-cycloserine, and colistin at 50 mg/ml in H2O and filtered at 2 μm. The 23 compounds were formulated into all 253 possible unique pairwise combinations at fixed ratios and at 100× concentrations in solvent. To increase the range of concentrations assayed for possible synergistic or antagonistic drug interactions (>2,000-fold), the drug stocks were arrayed into threefold dilution series down eight rows in 96-well Costar master drug plates, using a BioMek FX robotic liquid handler (Beckman Coulter, Inc.). Drugs were then mixed 1:100 into 96-well plates containing 200 μl/well of cation-adjusted Mueller-Hinton broth (CAMHB). All drug susceptibility assay wells were inoculated with ˜1 μl of mid-log phase bacterial culture at 0.5 McFarland standard (˜2×10^8 CFU/ml) and grown at 37° C. for 24 h. Endpoint growth at 37° C. after 24 h was determined by optical density at 600 nm ≥0.1 using a Synergy H1 reader (BioTek, Inc.).
Synergy of antibiotic combinations was determined using the fractional inhibitory concentration index (FICI) method ^57,58. By this method, the MIC of the antibiotic compound in combination is divided by the MIC of the compound alone, yielding the fractional contribution of each drug component in the combination. Quotients for all in a combination are summed and drug interactions scored using the formula: FICI=(MIC Acomb A B C)/MICagent A+(MIC Bcomb A B C)/MICagent B+(MIC Ccomb A B C)/MICagentC Select pairwise combinations against MRSA were then combined with each of the 21 remaining single drugs to make triple combinations, formulated and tested in identical fashion to the double combinations. Synergy of combinations was confirmed via triplicate measurements of drug conditions at the MIC. Based on its high synergy against MRSA N315 in the sparse screening, ME/PI/TZ and its constituents were selected for further characterization. Final susceptibility testing of ME/PI/TZ and its components was performed using twofold dilution from 128 to 2 μg/ml for each component

In the case of `CCN1CCN(C(=O)N[C@@H](C(=O)N[C@@H]2C(=O)N3[C@@H]2SC(C)(C)[C@@H]3C(=O)O)c2ccccc2)C(=O)C1=O` [Piperacillin], the “collateral effect on susceptibility” value ([1]; MRSA N315 after prior exposure to ME/TZ) is reported as “strong reciprocal collateral sensitivity”, the “collateral effect on susceptibility” value ([1]; MRSA N315 after prior exposure to tazobactam) is reported as “Collateral sensitivity” and the “collateral effect on susceptibility” value ([1]; MRSA N315 after prior exposure/adaptation to meropenem) is reported as “strong reciprocal collateral sensitivity”. For the same molecule, the MIC [2] was 64 µg/mL.
In the case of `C[C@@H](O)[C@H]1C(=O)N2C(C(=O)O)=C(S[C@@H]3CN[C@H](C(=O)N(C)C)C3)[C@H](C)[C@H]12` [Meropenem], the “collateral effect on susceptibility” value ([1]; MRSA N315 after prior exposure to PI/TZ) is reported as “sensitized”, the “collateral effect on susceptibility” value ([1]; MRSA N315 after prior exposure/adaptation to piperacillin) is reported as “sensitizes; also recorded: strong reciprocal collateral sensitivity” and the MIC [2] is reported as 16 µg/mL.
